The values that follow come from US20220409531A1, “PHARMACEUTICAL DELIVERY DEVICE AND METHOD OF MANUFACTURE” (University of Ulster, priority 2019, published 2022).

Counter-ions that a name gives are not always drawn.

A short description of the series: in vitro pharmaceutical release in simulated gastric fluid and simulated intestinal fluid. Type of series: physicochemical. To be noted: for cumulative release: from the capsule, simulated gastric fluid (pH=1.7) / simulated intestinal fluid (pH=7.4), time not stated; for release kinetics model fit: release from the fibres, in vitro. An excerpt:
FIGS. 7A and 7B illustrate the use of a pharmaceutical delivery device in accordance with an embodiment of the present invention to release two pharmaceuticals at the same time, each with their own unique release profile, in which FIG. 7A is a pharmaceutical release profile of APAP and CM from the various capsule configurations in a simulated gastric fluid (pH=1.7) and a simulated intestinal fluid (pH=7.4), and FIG. 7B is a detailed pharmaceutical release profile for APAP and CM from the composite capsule in the first two hours in a simulated gastric fluid (pH=1.7); and
The capsule sample was immersed into a 100 ml beaker containing 50 mL PBS solution being stirred at 100 rpm. The whole separation process was finished in 169 s and the complete dissolution of PVP finished until 295 s. Also, regulation and controlled movement of each component pharmaceutical layer after separation was achieved by adding Fe3O4 nanoparticles and an external magnetic field. The separated capsule containing the printed outer PCL with embedded Fe3O4 nanoparticles and travel quickly from left to right under an applied external magnet field while the inner layer without any nanoparticles remained stationary (FIG. 5). This travel distance was covered within 3 s at a velocity of 6.7 mm/s. […] This allows for multifunctional uses of the capsule such as for targeted pharmaceutical release using an externally located magnet, and as a magnetic resonance tracer. […] The cumulative release of APAP was more than 90% while the cumulative release of CM was around 70%.

As for `CN(C)CCC(c1ccc(Cl)cc1)c1ccccn1` (centres unmarked) [CM, chlorpheniramine maleate], the cumulative release result is “around 70%” and the “release kinetics model fit” value is reported as “mostly fit the Higuchi model”.
With `CC(=O)Nc1ccc(O)cc1` [APAP, paracetamol], the cumulative release result is “more than 90%” and the “release kinetics model fit” value is given as “mostly fit the Higuchi model”. Besides, the release rate comparison entry (first 2 hours in simulated gastric fluid (pH=1.7), composite capsule) is recorded as “faster than CM”.
